Reference: patent US11498928B2, “Macrocyclic spiroethers as Mcl-1 inhibitors” (ASCENTAGE PHARMA (SUZHOU) CO., LTD., priority 2019, dated 2022)
Like-named read-outs stand apart in the source and are kept apart here.

Experiments:
NCI-H929 cells = experiment: Cell viability assay (NCI-H929 cells), CCK-8; type: cell-based; conditions: Homo sapiens, NCI-H929, 24 h, 5% FBS
How it was run: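 NCI-H929 cells from ATCC were seeded at 20000 cells/well in 95 μL of culture medium in 96-well plates and grown for 4 hrs. Compounds, serially diluted in DMSO and further diluted in medium, were added as 5 μL, and cells were incubated for 24 hrs at 37° C. with 5% CO2. Viability was measured with CCK-8.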

[1] = biological target: T1, Mcl-1 protein (residues 171-323) (Homo sapiens, UniProt Q07820); experiment: Inhibition of Mcl-1 by fluorescence polarization (FP) competitive binding assay with FAM-Bid tracer; conditions: 2 nM FAM-Bid, 20 nM Mcl-1, 30 min
T1 construct: Tag-free Mcl-1 protein (residues 171-323) was used in the FP assay
How it was run: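 Tag-free Mcl-1 (20 nM) with 2 nM FAM-Bid peptide in PBS, 0.01% BGG, 0.01% Triton X-100, 5% DMSO, 30 min at room temperature. FP read at Ex 485/Em 528 nm. IC50 from 10-point curves normalised to DMSO and no-protein controls.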

OPM-2 cells = experiment: Cell viability assay (OPM-2 cells), CCK-8; type: cell-based; conditions: Homo sapiens, OPM-2, 24 h, 5% FBS
How it was run: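 OPM-2 myeloma cells (20000/well) exposed to serially diluted compound for 24 h at 37 °C, 5% CO2, then incubated 4 h with CCK-8 and read at 450 nm. Readings normalized to vehicle; IC50 from nonlinear regression.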

[2] = Pharmacokinetic studies in mice (IV and PO); type: in vivo; conditions: for F: PO 10 mg/kg vs IV 2 mg/kg; for AUC(0-inf) / AUC(0-t) / clearance / half-life / Cmax / MRT last / Vd / Tmax / Vd/F: mouse, plasma; for MRT last: read-out: MRT0-last; for Vd: read-out: Vss; for Vd/F: read-out: Vz/F
Procedure: Administration: Mice in the IV group was dosed at 2 mg/kg (20% PEG 400+10% Cremophor EL+70% PBS 7.4) via tail vein injection (N=9). Mice in the PO group was dosed at 10 mg/kg (20% PEG 400+10% Cremophor EL+70% PBS 7.4) via oral gavage (N=9). All the mice were fasted overnight before dosing and had free access to food 4 hr post dosing.
Sampling: The animal was restrained manually at the designated time points (0.083, 0.25, 0.5, 1, 2, 4, 6, 8 and 24 hr), approximately 110 μL of blood sample was collected via retro-orbital puncture or cardiac puncture for terminal bleeding under the anesthesia with Isoflurane inhalation into K2EDTA tubes. The blood samples were maintained in wet ice first and centrifuged to obtain plasma (2000 g, 4° C., 5 min) within 15 minutes post sampling. All the plasma samples were stored at approximately −70° C. until analysis.

[3] = IV 2 mg/kg, read-out: C0/Cmax (C0)
[4] = PO 10 mg/kg, read-out: C0/Cmax (Cmax)

T1 sequence (Q07820 171-323): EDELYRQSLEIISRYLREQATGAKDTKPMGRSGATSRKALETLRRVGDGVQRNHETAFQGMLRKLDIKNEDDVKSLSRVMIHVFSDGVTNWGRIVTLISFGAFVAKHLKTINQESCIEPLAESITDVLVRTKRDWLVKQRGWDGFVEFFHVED

SMILES	IC50 (NCI-H929 cells) [µM]	IC50 [1] [µM]	F [2] [%]	AUC(0-inf) ([2]; IV 2 mg/kg) [ng·h/mL]	AUC(0-t) ([2]; IV 2 mg/kg) [ng·h/mL]	clearance ([2]; IV 2 mg/kg) [mL/min/kg]	half-life ([2]; IV 2 mg/kg) [h]	Cmax [2, 3] [ng/mL]	MRT last ([2]; IV 2 mg/kg) [h]	Vd ([2]; IV 2 mg/kg) [L/kg]	AUC(0-inf) ([2]; PO 10 mg/kg) [ng·h/mL]	AUC(0-t) ([2]; PO 10 mg/kg) [ng·h/mL]	Tmax ([2]; PO 10 mg/kg) [h]	half-life ([2]; PO 10 mg/kg) [h]	Cmax [2, 4] [ng/mL]	MRT last ([2]; PO 10 mg/kg) [h]	Vd/F ([2]; PO 10 mg/kg) [L/kg]	IC50 (OPM-2 cells) [µM]
CO[C@H]1C2=CC(C)(C2)[C@H](C)CS(=O)(=O)NC(=O)c2ccc3c(c2)N(C[C@@H]2CC[C@H]21)C[C@@]1(CCCc2cc(Cl)ccc21)CO3 (mixture of isomers) [13 (mixture)]	0.089	0.021	57.2	5200	4780	6.4	6.5	861	6.2	3.2	14900	14400	4	4.5	1270	6.6	4.4	0.348
COCCO[C@H]1C2=CC(C2)[C@H](C)[C@@H](C)S(=O)(=O)NC(=O)c2ccc3c(c2)N(C[C@@H]2CC[C@H]21)C[C@@]1(CCCc2cc(Cl)ccc21)CO3 (mixture of isomers) [16 (mixture)]	0.037	0.009	70.5	2440	2380	13.6	1.6	1260	1.9	1.7	8620	8360	2	4.9	1690	4.5	8.3	0.136
CO[C@H]1C2=CC(C2)[C@H](C)[C@@H](C)S(=O)(=O)NC(=O)c2ccc3c(c2)N(C[C@@H]2CC[C@H]21)C[C@@]1(CCCc2cc(Cl)cc(F)c21)CO3 (single isomer, unassigned) [20 (isomer 1)]	2	0.012	60.2	7500	7350	4.45	6.7	6090	2.4	0.8	22600	22300	1	4.9	4860	3.6	3.1	2.69
C[C@@H]1[C@@H](C)S(=O)(=O)NC(=O)c2ccc3c(c2)N(C[C@@H]2CC[C@H]2[C@@H](OCCN2CCS(=O)(=O)CC2)C2=C[C@H]1C2)C[C@@]1(CCCc2c1ccc(Cl)c2F)CO3 [compound 88, (1S,11′R,12′S,13′R,16′R,16a′R,18a′R,E)-6-chloro-16′-(2-(1,1-dioxidothiomorpholino)ethoxy)-5-fluoro-11′,12′-dimethyl-3,4,12′,13′,16′,16a′,17′,18′,18a′,19′-decahydro-1′H,2H,3′H,11′H-spiro[naphthalene-1,2′-[5,7]etheno[13,15]methanocyclobuta[i][1,4]oxazepino[3,4-f][1]thia[2,7]diazacyclohexadecin]-8′(9′H)-one 10′,10′-dioxide]	0.04	0.013																0.118
C[C@@H]1[C@@H](C)S(=O)(=O)NC(=O)c2ccc3c(c2)N(C[C@@H]2CC[C@H]2[C@@H](OCCN2CCCS2(=O)=O)C2=C[C@H]1C2)C[C@@]1(CCCc2c1ccc(Cl)c2F)CO3 [compound 92, (1S,11′R,12′S,13′R,16′R,16a′R,18a′R)-6-chloro-16′-(2-(1,1-dioxidoisothiazolidin-2-yl)ethoxy)-5-fluoro-11′,12′-dimethyl-3,4,12′,13′,16′,16a′,17′,18′,18a′,19′-decahydro-1′H,2H,3′H,11′H-spiro[naphthalene-1,2′-[5,7]etheno[13,15]methanocyclobuta[i][1,4]oxazepino[3,4-f][1]thia[2,7]diazacyclohexadecin]-8′(9′H)-one 10′,10′-dioxide]	0.059	0.014																0.044
C[C@@H]1[C@@H](C)S(=O)(=O)NC(=O)c2ccc3c(c2)N(C[C@@H]2CC[C@H]2[C@@H](OCc2ccccn2)C2=C[C@H]1C2)C[C@@]1(CCCc2c1ccc(Cl)c2F)CO3 [compound 94, (1S,11′R,12′S,13′R,16′R,16a′R,18a′R,E)-6-chloro-5-fluoro-11′,12′-dimethyl-16′-(pyridin-2-ylmethoxy)-3,4,12′,13′,16′,16a′,17′,18′,18a′,19′-decahydro-1′H,2H,3′H,11′H-spiro[naphthalene-1,2′-[5,7]etheno[13,15]methanocyclobuta[i][1,4]oxazepino[3,4-f][1]thia[2,7]diazacyclohexadecin]-8′(9′H)-one 10′,10′-dioxide]	0.2	0.048																0.096
C[C@@H]1[C@@H](C)S(=O)(=O)NC(=O)c2ccc3c(c2)N(C[C@@H]2CC[C@H]2[C@@H](OCCN2CCC(F)(F)CC2)C2=C[C@H]1C2)C[C@@]1(CCCc2c1ccc(Cl)c2F)CO3 [compound 95]	0.044	0.023																0.042

Stronger by IC50 (NCI-H929 cells), values ahead:

IC50 (NCI-H929 cells) [µM]	IC50 [1] [µM]	F [2] [%]	AUC(0-inf) ([2]; IV 2 mg/kg) [ng·h/mL]	AUC(0-t) ([2]; IV 2 mg/kg) [ng·h/mL]	clearance ([2]; IV 2 mg/kg) [mL/min/kg]	half-life ([2]; IV 2 mg/kg) [h]	Cmax [2, 3] [ng/mL]	MRT last ([2]; IV 2 mg/kg) [h]	Vd ([2]; IV 2 mg/kg) [L/kg]	AUC(0-inf) ([2]; PO 10 mg/kg) [ng·h/mL]	AUC(0-t) ([2]; PO 10 mg/kg) [ng·h/mL]	Tmax ([2]; PO 10 mg/kg) [h]	half-life ([2]; PO 10 mg/kg) [h]	Cmax [2, 4] [ng/mL]	MRT last ([2]; PO 10 mg/kg) [h]	Vd/F ([2]; PO 10 mg/kg) [L/kg]	SMILES	IC50 (OPM-2 cells) [µM]
0.0075	0.011																C[C@@H]1[C@@H](C)S(=O)(=O)NC(=O)c2ccc3c(c2)N(C[C@@H]2CC[C@H]2[C@@H](OCCN2CCN(C4CCOCC4)CC2)C2=C[C@H]1C2)C[C@@]1(CCCc2c1ccc(Cl)c2F)CO3 [compound 89, (1S,11′R,12′S,13′R,16′R,16a′R,18a′R)-6-chloro-5-fluoro-11′,12′-dimethyl-16′-(2-(4-(tetrahydro-2H-pyran-4-yl)piperazin-1-yl)ethoxy)-3,4,12′,13′,16′,16a′,17′,18′,18a′,19′-decahydro-1′H,2H,3′H, 11′H-spiro[naphthalene-1,2′-[5,7]etheno[13,15]methanocyclobuta[i][1,4]oxazepino[3,4-f][1]thia[2,7]diazacyclohexadecin]-8′(9′H)-one 10′,10′-dioxide]	0.053
0.0016	0.012																CC(C)N1CCN(CCO[C@H]2C3=C[C@@H](C3)[C@H](C)[C@@H](C)S(=O)(=O)NC(=O)c3ccc4c(c3)N(C[C@@H]3CC[C@H]32)C[C@@]2(CCCc3c2ccc(Cl)c3F)CO4)CC1 [compound 90, (1S,11′R,12′S,13′R,16′R,16a′R,18a′R,E)-6-chloro-5-fluoro-16′-(2-(4-isopropylpiperazin-1-yl)ethoxy)-11′,12′-dimethyl-3,4,12′,13′,16′,16a′,17′,18′,18a′,19′-decahydro-1′H,2H,3′H, 11′H-spiro[naphthalene-1,2′-[5,7]etheno[13,15]methanocyclobuta[i][1,4]oxazepino[3,4-f][1]thia[2,7]diazacyclohexadecin]-8′(9′H)-one 10′,10′-dioxide]	0.02
0.016	0.015																C[C@@H]1[C@@H](C)S(=O)(=O)NC(=O)c2ccc3c(c2)N(C[C@@H]2CC[C@H]2[C@@H](OCCN2CCN(C)CC2=O)C2=C[C@H]1C2)C[C@@]1(CCCc2c1ccc(Cl)c2F)CO3 [compound 91, (1S,11′R,12′S,13′R,16′R,16a′R,18a′R)-6-chloro-5-fluoro-11′,12′-dimethyl-16′-(2-(4-methyl-2-oxopiperazin-1-yl)ethoxy)-3,4,12′,13′,16′,16a′,17′,18′,18a′,19′-decahydro-1′H,2H,3′H,11′H-spiro[naphthalene-1,2′-[5,7]etheno[13,15]methanocyclobuta[i][1,4]oxazepino[3,4-f][1]thia[2,7]diazacyclohexadecin]-8′(9′H)-one 10′,10′-dioxide]	0.059
0.011	0.019																CO[C@@]1(CN2CCC(N3CCOCC3)CC2)C2=C[C@@H](C2)[C@H](C)[C@@H](C)S(=O)(=O)NC(=O)c2ccc3c(n2)N(C[C@@H]2CC[C@H]21)C[C@@]1(CCCc2c1ccc(Cl)c2F)CO3 [compound 93, (1S,11′R,12′S,13′R,16′R,16a′R,18a′R)-6-chloro-5-fluoro-16′-methoxy-11′,12′-dimethyl-16′-((4-morpholinopiperidin-1-yl)methyl)-3,4,12′,13′,16′,16a′,17′,18′,18a′,19′-decahydro-1′H,2H,3′H,11′H-spiro[naphthalene-1,2′-[5,7]etheno[13,15]methanocyclobuta[i][1,4]oxazepino[3,4-f][1]thia[2,5,7]triazacyclohexadecin]-8′(9′H)-one 10′,10′-dioxide]	0.071
